According to ChEMBL document CHEMBL2010679, “Development of a new class of aromatase inhibitors: design, synthesis and inhibitory activity of 3-phenylchroman-4-one (isoflavanone) derivatives” (Bioorg Med Chem, 2012):

The molecules below were run against T1, Aromatase (Homo sapiens, UniProt P11511) (assay: Inhibition of human recombinant aromatase expressed in baculovirus/insect cells using 7-methoxy-trifluoromethylcoumarin as substrate after 30 mins by fluorescence-based spectrophotometry). Settings: not given; call rule not given here.
T1 sequence (P11511 whole entry): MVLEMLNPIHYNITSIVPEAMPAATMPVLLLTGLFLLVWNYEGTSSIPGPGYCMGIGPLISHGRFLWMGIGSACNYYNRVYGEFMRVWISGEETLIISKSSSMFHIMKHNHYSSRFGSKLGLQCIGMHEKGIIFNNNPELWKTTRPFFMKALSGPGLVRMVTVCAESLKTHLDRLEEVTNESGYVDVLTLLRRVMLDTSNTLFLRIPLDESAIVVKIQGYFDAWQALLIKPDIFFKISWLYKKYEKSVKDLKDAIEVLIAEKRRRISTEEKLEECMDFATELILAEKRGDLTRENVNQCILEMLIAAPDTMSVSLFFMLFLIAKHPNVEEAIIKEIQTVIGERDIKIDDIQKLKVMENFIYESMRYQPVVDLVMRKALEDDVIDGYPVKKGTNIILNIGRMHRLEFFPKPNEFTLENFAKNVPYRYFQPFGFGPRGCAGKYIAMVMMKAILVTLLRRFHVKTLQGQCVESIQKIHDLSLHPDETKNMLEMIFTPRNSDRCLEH
In the case of `O=C1c2ccccc2OCC1c1ccc(-c2ccccc2)cc1` (racemic), the IC50 is reported as “Not Active”.
With `O=C1c2ccccc2OCC1c1cc2ccccc2c2ccccc12` (racemic) the IC50 was “Not Active”.

Same assay, conditions: read-out: IC50
`COc1ccc2c(c1)OCC(c1ccccc1)C2=O` (racemic) was tested, and the IC50 was 41 µM.
In the case of `Cc1ccc2c(c1)C(=O)C(c1ccccc1)CO2` (racemic), the IC50 is reported as 44 µM.
For `Cc1ccc2c(c1)OCC(c1ccccc1)C2=O` (racemic), the IC50 was 18 µM.
`Cc1cccc(C2COc3ccccc3C2=O)c1` (racemic) was tested, and the IC50 was 20 µM.
`Cc1ccc(C2COc3ccccc3C2=O)cc1` (racemic) showed an IC50 of 41 µM.
With `O=C1c2c(ccc3ccccc23)OCC1c1ccccc1` (racemic) the IC50 was 20 µM.
`O=C1c2ccccc2OCC1c1ccc(Oc2ccccc2)cc1` (racemic) gave an IC50 of 2.4 µM.
`COc1ccc2c(c1)C(=O)C(c1ccccc1)CO2` (racemic) showed an IC50 of 0.26 µM.
`COc1ccccc1C1COc2ccccc2C1=O` (racemic) was tested, and the IC50 was 97 µM.
`COc1cccc(C2COc3ccccc3C2=O)c1` (racemic) showed an IC50 of 99 µM.
With `COc1ccc(C2COc3ccccc3C2=O)cc1` (racemic) the IC50 was 24 µM.
With `COc1cc(OC)cc(C2COc3ccccc3C2=O)c1` (racemic) the IC50 was 11 µM.
In the case of `O=C1c2ccccc2OCC1c1ccsc1` (racemic), the IC50 is reported as 30 µM.
In the case of `O=C1c2ccccc2OCC1c1cccnc1` (racemic), the IC50 is reported as 5.8 µM.
`O=C1c2cc(F)ccc2OCC1c1ccccc1` (racemic) gave an IC50 of 32 µM.
`O=C1c2cc(Cl)ccc2OCC1c1ccccc1` (racemic) showed an IC50 of 5.1 µM.
For `O=C1c2cc(Br)ccc2OCC1c1ccccc1` (racemic), the IC50 was 29 µM.
`CC(C)(C)c1ccc2c(c1)C(=O)C(c1ccccc1)CO2` (racemic) gave an IC50 of 61 µM.
For `O=C1c2ccccc2OCC1c1ccccc1` (racemic) [ISOFLAVANONE], the IC50 was 29 µM.

What follows are molecules tested against T1, Aromatase. Settings: not given.
`O=C1c2ccccc2OC(O)C1c1ccccc1` (centres undefined) gave an IC50 of 170 µM.
`O=C1c2ccccc2OCC1c1ccc(O)cc1` (centres undefined) showed an IC50 of 160 µM.
For `O=C1c2ccccc2OCC1c1ccc(O)c(O)c1` (centres undefined), the IC50 was ≥ 200 µM.
